Data reported in patent US7045532B2 (Millennium Pharmaceuticals, Inc., priority 1999, dated 2006).

Columns and labels:
ACE (Sigma, A2580) = biological target: T1, ACE (Sigma, A2580) (Sus scrofa, UniProt F1RRW5); experiment: ACE enzymatic activity assay; type: biochemical, porcine; conditions: Ki class; compounds tested in 5% DMSO, 12 concentrations
T1 construct: ACE from porcine kidney; purchased Sigma A2580; host or cells: porcine kidney
T1 sequence (F1RRW5 34-1309): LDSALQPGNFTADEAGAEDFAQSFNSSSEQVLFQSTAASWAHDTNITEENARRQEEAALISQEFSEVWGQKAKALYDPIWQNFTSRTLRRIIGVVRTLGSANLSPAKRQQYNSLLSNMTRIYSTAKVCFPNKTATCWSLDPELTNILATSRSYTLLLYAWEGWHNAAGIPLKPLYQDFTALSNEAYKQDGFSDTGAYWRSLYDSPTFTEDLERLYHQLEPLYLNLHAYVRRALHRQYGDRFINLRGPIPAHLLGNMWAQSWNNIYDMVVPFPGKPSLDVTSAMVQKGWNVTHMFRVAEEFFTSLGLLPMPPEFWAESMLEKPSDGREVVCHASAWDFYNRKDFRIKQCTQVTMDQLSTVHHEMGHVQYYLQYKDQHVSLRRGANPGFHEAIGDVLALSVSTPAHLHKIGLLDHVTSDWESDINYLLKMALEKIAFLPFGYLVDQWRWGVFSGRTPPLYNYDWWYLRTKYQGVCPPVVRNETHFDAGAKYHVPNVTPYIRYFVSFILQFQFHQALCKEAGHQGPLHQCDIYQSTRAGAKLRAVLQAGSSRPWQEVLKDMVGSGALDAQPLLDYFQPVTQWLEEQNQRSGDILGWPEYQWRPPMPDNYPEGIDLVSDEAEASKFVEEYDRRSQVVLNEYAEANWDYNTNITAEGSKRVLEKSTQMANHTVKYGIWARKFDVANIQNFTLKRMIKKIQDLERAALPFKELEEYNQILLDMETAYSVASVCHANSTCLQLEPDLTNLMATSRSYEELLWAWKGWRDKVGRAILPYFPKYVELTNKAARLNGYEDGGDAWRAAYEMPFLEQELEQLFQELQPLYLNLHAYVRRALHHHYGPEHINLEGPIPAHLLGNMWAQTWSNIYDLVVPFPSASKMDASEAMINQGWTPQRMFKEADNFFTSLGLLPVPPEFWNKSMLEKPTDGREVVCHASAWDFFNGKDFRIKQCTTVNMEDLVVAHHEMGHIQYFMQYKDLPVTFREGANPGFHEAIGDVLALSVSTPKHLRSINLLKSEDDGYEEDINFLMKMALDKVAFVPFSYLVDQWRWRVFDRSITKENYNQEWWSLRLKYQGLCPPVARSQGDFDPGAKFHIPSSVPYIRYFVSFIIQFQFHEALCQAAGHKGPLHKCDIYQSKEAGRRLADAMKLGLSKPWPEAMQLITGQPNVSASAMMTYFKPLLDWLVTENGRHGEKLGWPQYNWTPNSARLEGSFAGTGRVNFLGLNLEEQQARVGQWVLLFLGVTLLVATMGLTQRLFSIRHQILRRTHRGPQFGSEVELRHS
Method in brief: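 ACE (1 nM final) in 50 mM HEPES, 300 mM NaCl, 0.01% Brij-35, pH 7.5, with compound in 5% DMSO at 12 concentrations, 25 °C. Substrate cleavage run ~30 min, stopped with EDTA; fluorescence read at excitation 320 nm, emission 405 nm.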

ACE-2 [1] = biological target: T2, ACE-2 (Homo sapiens, UniProt Q9BYF1); experiment: ACE-2 Competitive Substrate Assay (ACS Assay); type: biochemical; conditions: Ki class; compounds tested in 5% DMSO, 12 concentrations; read-out: Human ACE-2 Activity
T2 construct: a stop codon inserted after the serine immediately preceding the transmembrane domain; made in house; host or cells: CHO K1 cells (transient transfection, purified from conditioned medium)

ACE-2 [2] = biological target: ACE-2 (Rattus norvegicus, UniProt Q5EGZ1); experiment: ACE-2 Competitive Substrate Assay, rat ACE-2; type: biochemical; conditions: Ki class; compounds tested in 5% DMSO, 12 concentrations
Carboxypeptidase A = biological target: T3, Carboxypeptidase A (Bos taurus, UniProt P00730); experiment: Carboxypeptidase A activity assay; type: biochemical; conditions: Ki class; compounds tested in 5% DMSO, 12 concentrations
T3 sequence (P00730 111-419): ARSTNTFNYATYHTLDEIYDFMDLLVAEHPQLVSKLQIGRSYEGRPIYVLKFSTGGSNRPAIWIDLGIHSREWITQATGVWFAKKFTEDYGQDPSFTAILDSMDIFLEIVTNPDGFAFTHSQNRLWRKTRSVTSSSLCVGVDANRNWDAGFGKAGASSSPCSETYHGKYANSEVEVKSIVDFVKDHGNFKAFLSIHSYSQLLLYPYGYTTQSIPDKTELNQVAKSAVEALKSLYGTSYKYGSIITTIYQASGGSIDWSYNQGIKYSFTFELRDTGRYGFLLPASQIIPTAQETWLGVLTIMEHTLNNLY
Method in brief: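 Bovine carboxypeptidase A activity followed at 328 nm in 5% DMSO, reaction stopped with EDTA. Activity measured at 12 compound concentrations. Ki derived from apparent Ki as Ki=Kiapp/(1+[S]/Km).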

ACE-2 (Rattus norvegicus, UniProt Q5EGZ1), sequence (Q5EGZ1 18-805): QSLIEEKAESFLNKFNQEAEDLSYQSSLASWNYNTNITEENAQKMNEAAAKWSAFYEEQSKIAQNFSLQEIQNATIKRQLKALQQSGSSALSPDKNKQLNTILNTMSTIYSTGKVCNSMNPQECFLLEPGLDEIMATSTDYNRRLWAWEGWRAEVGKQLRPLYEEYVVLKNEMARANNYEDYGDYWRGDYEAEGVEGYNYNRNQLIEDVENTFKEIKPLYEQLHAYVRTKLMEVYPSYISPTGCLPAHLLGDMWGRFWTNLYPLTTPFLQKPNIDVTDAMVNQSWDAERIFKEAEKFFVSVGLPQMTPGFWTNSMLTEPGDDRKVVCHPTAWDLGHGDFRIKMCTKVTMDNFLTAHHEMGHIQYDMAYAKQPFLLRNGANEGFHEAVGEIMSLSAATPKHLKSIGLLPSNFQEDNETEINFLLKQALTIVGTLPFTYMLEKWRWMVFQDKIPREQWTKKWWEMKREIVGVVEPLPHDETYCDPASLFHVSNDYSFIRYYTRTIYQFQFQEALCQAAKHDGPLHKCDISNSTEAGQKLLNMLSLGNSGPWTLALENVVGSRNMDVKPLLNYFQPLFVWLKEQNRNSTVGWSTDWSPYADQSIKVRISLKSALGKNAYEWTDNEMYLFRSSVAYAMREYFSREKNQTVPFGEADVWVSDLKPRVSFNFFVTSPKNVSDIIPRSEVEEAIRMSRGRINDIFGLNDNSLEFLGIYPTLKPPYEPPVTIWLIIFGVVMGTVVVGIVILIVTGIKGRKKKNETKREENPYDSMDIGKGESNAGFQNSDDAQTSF
T2 sequence (Q9BYF1 18-740 limits assumed): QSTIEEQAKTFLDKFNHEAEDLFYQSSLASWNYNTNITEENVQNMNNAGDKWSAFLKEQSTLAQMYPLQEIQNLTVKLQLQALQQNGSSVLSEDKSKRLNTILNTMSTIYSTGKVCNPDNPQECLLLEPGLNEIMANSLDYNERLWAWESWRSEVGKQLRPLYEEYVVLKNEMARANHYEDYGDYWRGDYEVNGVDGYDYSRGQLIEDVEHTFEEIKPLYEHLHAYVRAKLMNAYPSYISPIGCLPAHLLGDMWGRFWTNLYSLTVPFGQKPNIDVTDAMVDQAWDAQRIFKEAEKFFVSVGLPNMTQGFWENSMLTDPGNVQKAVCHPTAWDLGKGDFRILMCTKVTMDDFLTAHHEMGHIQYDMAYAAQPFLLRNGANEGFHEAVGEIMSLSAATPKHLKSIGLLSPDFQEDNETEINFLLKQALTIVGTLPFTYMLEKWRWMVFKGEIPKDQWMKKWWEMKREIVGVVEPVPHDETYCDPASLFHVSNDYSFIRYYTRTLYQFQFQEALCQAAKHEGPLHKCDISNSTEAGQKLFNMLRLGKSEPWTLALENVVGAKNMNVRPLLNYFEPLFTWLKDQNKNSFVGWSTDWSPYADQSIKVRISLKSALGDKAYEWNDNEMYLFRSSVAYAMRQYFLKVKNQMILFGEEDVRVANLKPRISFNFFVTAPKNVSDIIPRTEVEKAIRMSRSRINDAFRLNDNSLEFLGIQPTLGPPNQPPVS

Structure (SMILES) | Ki (ACE (Sigma, A2580)) [µM] | Ki (ACE-2 [1]) [nM] | Ki (ACE-2 [2]) [nM] | Ki (Carboxypeptidase A) [µM]
CC(C)CC(N[C@@H](Cc1nc[nH]n1)C(=O)O)C(=O)O (some centres unmarked) [CD, 2-[1-Caboxy-2-(1H-[1,2,4]triazol-3-yl)-ethylamino]-4-methyl-pentanoic acid] | > 50 | > 500 | 100 to 500 | > 50
CCCC(N[C@H](CCc1ccccc1)C(=O)O)C(=O)O (stereo in doubt) [BA, 2-(1-Carboxy-3-phenyl-propylamino)-pentanoicacid] | > 50 | > 500 | > 500 | > 50
COc1ccc(Cn2cnc(C[C@H](NC(CC(C)C)C(=O)O)C(=O)O)c2)cc1 (some centres unmarked) [EM, 2-[1-Carboxy-2-[1-(4-methoxy-benzyl)-1H-imidazol-4-yl]-ethylamino)4-methyl-pentanoic acid] | > 50 | > 500 | > 500 | > 50
CC(C)CC(N[C@@H](Cc1cncn1COCc1ccccc1)C(=O)O)C(=O)O (single isomer, unassigned) [FH, 2-[2-(3-Benzyloxymethyl-3H-imidazol-4-yl)-1-carboxy-ethylamino]-4-methyl-pentanoic acid] | > 50 | > 500 | > 500 | > 50
CCCCC(N[C@@H](Cc1c[nH]cn1)C(=O)O)C(=O)O (single isomer, unassigned) [ED, 2-[1-Carboxy-2-(1H-imidazol-4-yl)-ethylamino]hexanoic acid] | > 50 | > 500 | 100 to 500 | > 50
CC(C)CC(NC(Cc1nccs1)C(=O)O)C(=O)O (centres unmarked) [CF, 2-(1-Carboxy-2-thiazol-2-yl-ethylamino)-4-methyl-pentanoic acid] | > 50 | > 500 | 100 to 500 | > 50
CC(C)C[C@H](NC(CN(C)c1ccccc1)C(=O)O)C(=O)O (some centres unmarked) [AP, 2-[1-Carboxy-2-(methyl-phenyl-amino)-ethylamino]-4-methyl-pentanoic acid] | > 50 | > 500 | 100 to 500 | 10 to 50
CC(C)C[C@@H](N[C@H](C(=O)O)c1ccccc1)C(=O)O [BS, 2-[(Carboxy-phenyl-methyl)-amino]-4-methyl-pentanoic acid] | > 50 | > 500 | > 500 | > 50
CC(C)CC(N[C@H](Cc1cncn1C)C(=O)O)C(=O)O (some centres unmarked) [CB, 2-[1-Carboxy-2-(3-methyl-3H-imidazol-4-yl)-ethylamino]-4-methyl-pentanoic acid] | > 50 | > 500 | > 500 | > 50
CC(C)C[C@H](NC(C(=O)O)c1ccc2ccccc2c1)C(=O)O (some centres unmarked) [BR, 2-[(Carboxy-naphthalen-2-yl-methyl)-amino]-4-methyl-pentanoic acid] | > 50 | > 500 | > 500 | > 50

Further lines, results first:

Ki (ACE (Sigma, A2580)) [µM] | Ki (ACE-2 [1]) [nM] | Ki (ACE-2 [2]) [nM] | Ki (Carboxypeptidase A) [µM] | Structure (SMILES)
> 50 | > 500 | 100 to 500 | 10 to 50 | CCC(C)C(NC(Cc1cncn1Cc1ccccc1)C(=O)O)C(=O)O (single isomer, unassigned) [GC, 2-[2-(3-Benzyl-3H-imidazol-4-yl)-1-carboxy-ethylamino]-3-methyl-pentanoic acid]
< 10 | > 500 | > 500 | > 50 | CC(C)CC(N[C@H](Cc1c[nH]cn1)C(=O)O)C(=O)O (some centres unmarked) [BB, 2-[1-Carboxy-2-(1H-imidazol-4-yl)-ethylamino]4-methyl-pentanoic acid]
10 to 50 | > 500 | > 500 | > 50 | CCCC(N[C@@H](Cc1c[nH]cn1)C(=O)O)C(=O)O (single isomer, unassigned) [DK, 2-[1-Carboxy-2-(1H-imidazol-4-yl)-ethylamino)pentanoic acid]
10 to 50 | > 500 | > 500 | < 10 | CC(C)CC(N[C@@H](Cc1cn(Cc2ccccc2)cn1)C(=O)O)C(=O)O (some centres unmarked) [BV, 2-[2-(1-Benzyl-1H-imidazol-4-yl)-1-carboxy-ethylamino]-4-methyl-pentanoic acid]
